Results on eight compounds are retold here after ChEMBL document CHEMBL1137837 (Bioorg Med Chem Lett, 2004).

In series [1] the target is Beta-2 adrenergic receptor (Homo sapiens, UniProt P07550).
Description: Binding affinity for human beta-2 adrenergic receptor
For series [2], the species on record is Oryctolagus cuniculus. The series can be described thus: Concentration required to inhibit electrically induced contraction of superfused guinea-pig trachea was determined.
Series [3] can be described thus: Partition coefficient (logD). Format: physicochemical. To be noted: octanol/water.
The species entered for series [4] is Oryctolagus cuniculus. The series can be described thus: Duration action in guinea pig.

Broadly, the Ki is the equilibrium dissociation constant of an inhibitor or competing ligand from its target. Read a low Ki as a stronger hold on the target. Usually IC50 stands for the midpoint of a concentration-inhibition curve. A word on the logD: it is lipophilicity at a set pH, counting ionised and neutral species.

Chain of Beta-2 adrenergic receptor (P07550 whole entry, the tested form may be a part): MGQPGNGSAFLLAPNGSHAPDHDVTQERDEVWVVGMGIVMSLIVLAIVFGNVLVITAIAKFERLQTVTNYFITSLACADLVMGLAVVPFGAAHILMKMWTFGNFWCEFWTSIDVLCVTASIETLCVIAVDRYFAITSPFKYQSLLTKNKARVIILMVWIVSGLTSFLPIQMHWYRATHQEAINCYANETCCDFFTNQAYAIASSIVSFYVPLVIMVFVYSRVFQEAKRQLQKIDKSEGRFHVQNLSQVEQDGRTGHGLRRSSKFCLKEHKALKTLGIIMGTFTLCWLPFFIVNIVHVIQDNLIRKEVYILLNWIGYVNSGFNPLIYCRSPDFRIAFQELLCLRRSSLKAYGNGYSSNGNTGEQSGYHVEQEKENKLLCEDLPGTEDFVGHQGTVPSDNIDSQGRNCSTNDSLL

Turning to `O=CNc1cc([C@@H](O)CNCCc2ccc(OCCc3ccccc3)cc2)ccc1O`, the inhibitory constant (Ki) in series [1] was 0.0078 µM. The compound also showed an IC50 in the series listed under Oryctolagus cuniculus [2] of 0.0011 µM. In addition, the logD in series [3] (read-out: logD) came out at 1.67.

In turn, `OCc1cc(C(O)CNCCCCCCOCCCCc2ccccc2)ccc1O` (stereo unspecified) [SALMETEROL] displayed a logD in series [3] of 1.24.

Regarding `O=CNc1cc([C@@H](O)CNCCc2ccc(OCCCCc3ccccc3)cc2)ccc1O`, the inhibitory constant (Ki) in series [1] is 0.0092 µM. Moreover, in the series filed under Oryctolagus cuniculus [2], the half-maximal inhibitory concentration (IC50) worked out at 0.071 µM. In the series filed under Oryctolagus cuniculus [4], this compound yielded a Duration of 6.62 h. Also, the pH-dependent lipophilicity (logD) was found to be 2.76 in series [3] and 2.83 in series [3] (read-out: logD).

`O=CNc1cc([C@@H](O)CNCCc2ccc(Oc3ccccc3)cc2)ccc1O`: the Ki in series [1] turned out to be 0.0354 µM. The IC50 in the series filed under Oryctolagus cuniculus [2] was found to be 0.12 µM. Moreover, the log distribution coefficient (logD) in series [3] (read-out: logD) was found to be 1.95.

For `O=CNc1cc([C@@H](O)CNCCc2cccc(OCCCOc3ccccc3)c2)ccc1O`, the Ki in series [1] turned out to be 0.0033 µM. For the same compound, half-maximal inhibition in the series filed under Oryctolagus cuniculus [2] (IC50) required 0.164 µM. In the series filed under Oryctolagus cuniculus [4], this compound came in with a Duration of 5.43 h. For the same compound, the logD stood at 2.49 in series [3] and 2 in series [3] (read-out: logD).

Compound `O=CNc1cc([C@@H](O)CNCCc2cccc(OCCCCc3ccccc3)c2)ccc1O` registered a Ki in series [1] of 0.0085 µM. The same compound yielded an IC50 in the series filed under Oryctolagus cuniculus [2] of 0.114 µM. Besides, the log distribution coefficient (logD) in series [3] (read-out: logD) is 2.83.

Consider `O=CNc1cc([C@@H](O)CNCCc2ccc(OC3Cc4ccccc4C3)cc2)ccc1O`, for which the Ki in series [1] is 0.0116 µM. The compound also came in with an IC50 in the series listed under Oryctolagus cuniculus [2] of 0.251 µM. In addition, the logD in series [3] (read-out: logD) came out at 2.95.

`O=CNc1cc([C@@H](O)CNCCc2ccc(OCCCc3ccccc3)cc2)ccc1O` showed an inhibitory constant (Ki) in series [1] of 0.0059 µM. The compound also displayed a half-maximal inhibitory concentration (IC50) in the series listed under Oryctolagus cuniculus [2] of 0.038 µM. The pH-dependent lipophilicity (logD) in series [3] (read-out: logD) was determined as 2.35.
